Experimental findings from patent US10736883B2, “Triazole furan compounds as agonists of the APJ receptor” (AMGEN INC., priority 2016, dated 2020) are described below.

For orientation: EC50 means the concentration at which the effect is half-maximal.

For this assay, the target named is APJ receptor (Homo sapiens (Human), UniProt P35414). In words: [35S]GTPγS binding assay on membranes from CHO cells stably expressing human APJ receptor. As to conditions: membranes of CHO cells stably expressing human APJ receptor, means of several independent experiments, read-out: Activity hAPJ SPA EC50 IP. Type of assay: biochemical. The method in brief: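 EC50 values were obtained by non-linear regression of [35S]GTPγS (0.2 nM) binding after 90 min at RT, with nonspecific binding defined by 100 μM GTPγS. Reactions used human APJ–expressing CHO cell membranes on WGA PS beads in HEPES pH 7.5 buffer with 5 mM MgCl2, 200 mM NaCl, 3 μM GDP and 0.1% BSA.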
Sequence of APJ receptor (P35414 whole entry): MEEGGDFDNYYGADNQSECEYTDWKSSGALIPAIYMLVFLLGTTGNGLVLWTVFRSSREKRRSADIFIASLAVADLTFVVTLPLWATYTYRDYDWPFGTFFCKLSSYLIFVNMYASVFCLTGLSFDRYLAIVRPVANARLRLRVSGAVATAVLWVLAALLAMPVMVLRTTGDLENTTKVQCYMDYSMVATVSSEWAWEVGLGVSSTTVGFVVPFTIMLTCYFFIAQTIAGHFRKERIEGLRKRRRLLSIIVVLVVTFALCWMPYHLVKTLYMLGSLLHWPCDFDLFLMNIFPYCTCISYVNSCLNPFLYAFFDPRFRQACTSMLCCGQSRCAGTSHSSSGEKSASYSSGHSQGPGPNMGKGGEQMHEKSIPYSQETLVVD

Structures are written as SMILES.

For the molecule `COc1cccc(OC)c1-n1c(NS(=O)(=O)[C@H]2C[C@@H](O)CN(c3nc(C)cc(C)n3)C2)nnc1-c1ccc(C)o1` (racemic) [Example 326.0, (3S,5R)—N-(4-(2,6-Dimethoxyphenyl)-5-(5-methylfuran-2-yl)-4H-1,2,4-triazol-3-yl)-1-(4,6-dimethylpyrimidin-2-yl)-5-hydroxypiperidine-3-sulfonamide and (3R,5S)—N-(4-(2,6-dimethoxyphenyl)-5-(5-methylfuran-2-yl)-4H-1,2,4-triazol-3-yl)-1-(4,6-dimethylpyrimidin-2-yl)-5-hydroxypiperidine-3-sulfonamide], the EC50 came to 0.24 nM.
Under `COc1cccc(OC)c1-n1c(NS(=O)(=O)[C@@H]2COCC[C@@H]2O)nnc1-c1ccc(C)o1` (single isomer, unassigned) [Example 402.0] stands 65 nM; under `COc1cccc(OC)c1-n1c(NS(=O)(=O)[C@@H](C)[C@@H](C)c2ncc(F)cn2)nnc1-c1ccc(C)o1` [Example 110.0], 0.97 nM; under `COc1cccc(OC)c1-n1c(NS(=O)(=O)[C@H](C)Cc2ncc(Cl)cc2C#N)nnc1-c1ccco1` (single isomer, unassigned) [Example 20.0, (2R)-1-(5-chloro-3-cyano-2-pyridinyl)-N-(4-(2,6-dimethoxyphenyl)-5-(2-furanyl)-4H-1,2,4-triazol-3-yl)-2-propanesulfonamide or (2S)-1-(5-chloro-3-cyano-2-pyridinyl)-N-(4-(2,6-dimethoxyphenyl)-5-(2-furanyl)-4H-1,2,4-triazol-3-yl)-2-propanesulfonamide], 0.3 nM.
The same measure for `COc1cccc(OC)c1-n1c(NS(=O)(=O)[C@@H](C)[C@@H](O)c2ccc(F)cn2)nnc1-c1ccc(C)o1` (single isomer, unassigned) [Example 79.0]: 0.98 nM; for `COc1cccc(OC)c1-n1c(NS(=O)(=O)[C@@H](C)[C@H](O)c2cc3ccccn3n2)nnc1-c1ccc(C)o1` (single isomer, unassigned) [Example 266.0, (1R,2S)—N-(4-(2,6-Dimethoxyphenyl)-5-(5-methyl-2-furanyl)-4H-1,2,4-triazol-3-yl)-1-hydroxy-1-pyrazolo[1,5-a]pyridin-2-yl-2-propanesulfonamide or (1S,2R)—N-(4-(2,6-dimethoxyphenyl)-5-(5-methyl-2-furanyl)-4H-1,2,4-triazol-3-yl)-1-hydroxy-1-pyrazolo[1,5-a]pyridin-2-yl-2-propanesulfonamide]: 0.21 nM.
Regarding `COc1cccc(OC)c1-n1c(NS(=O)(=O)C[C@@](C)(F)c2ncc(C#N)cn2)nnc1-c1ccc(C)o1` (single isomer, unassigned) [Example 231.0, (2S)-2-(5-Cyano-2-pyrimidinyl)-N-(4-(2,6-dimethoxyphenyl)-5-(5-methyl-2-furanyl)-4H-1,2,4-triazol-3-yl)-2-fluoro-1-propanesulfonamide or (2R)-2-(5-cyano-2-pyrimidinyl)-N-(4-(2,6-dimethoxyphenyl)-5-(5-methyl-2-furanyl)-4H-1,2,4-triazol-3-yl)-2-fluoro-1-propanesulfonamide], the EC50 stood at 0.44 nM.
Under `COc1cccc(OC)c1-n1c(NS(=O)(=O)[C@H](C)[C@H](O)c2cscn2)nnc1-c1ccc(C)o1` (single isomer, unassigned) [Example 309.0, (1S,2S)—N-(4-(2,6-Dimethoxyphenyl)-5-(5-methyl-2-furanyl)-4H-1,2,4-triazol-3-yl)-1-hydroxy-1-(1,3-thiazol-4-yl)-2-propanesulfonamide or (1R,2R)—N-(4-(2,6-dimethoxyphenyl)-5-(5-methyl-2-furanyl)-4H-1,2,4-triazol-3-yl)-1-hydroxy-1-(1,3-thiazol-4-yl)-2-propanesulfonamide] stands 61 nM; under `COc1cccc(OC)c1-n1c(NS(=O)(=O)[C@H](C)[C@@H](O)c2coc(C)n2)nnc1-c1ccc(C)o1` (racemic) [Example 284.0, (1R,2S)—N-(4-(2,6-Dimethoxyphenyl)-5-(5-methyl-2-furanyl)-4H-1,2,4-triazol-3-yl)-1-hydroxy-1-(2-methyl-1,3-oxazol-4-yl)-2-propanesulfonamide and (1S,2R)—N-(4-(2,6-dimethoxyphenyl)-5-(5-methyl-2-furanyl)-4H-1,2,4-triazol-3-yl)-1-hydroxy-1-(2-methyl-1,3-oxazol-4-yl)-2-propanesulfonamide], 1.6 nM; under `COc1cccc(OC)c1-n1c(NS(=O)(=O)[C@H](C)[C@@H](O)c2cnc3ccccn23)nnc1-c1ccc(C)o1` (single isomer, unassigned) [Example 294.0, (1R,2S)—N-(4-(2,6-Dimethoxyphenyl)-5-(5-methyl-2-furanyl)-4H-1,2,4-triazol-3-yl)-1-hydroxy-1-imidazo[1,2-a]pyridin-3-yl-2-propanesulfonamide or (1S,2R)—N-(4-(2,6-dimethoxyphenyl)-5-(5-methyl-2-furanyl)-4H-1,2,4-triazol-3-yl)-1-hydroxy-1-imidazo[1,2-a]pyridin-3-yl-2-propanesulfonamide], 5.8 nM.
In the case of `CCc1ccc(-c2nnc(NS(=O)(=O)[C@@H](C)Cc3ncc(F)cn3)n2-c2c(OC)cccc2OC)o1` (single isomer, unassigned) [Example 99.0, (2S)—N-(4-(2,6-Dimethoxyphenyl)-5-(5-ethyl-2-furanyl)-4H-1,2,4-triazol-3-yl)-1-(5-fluoro-2-pyrimidinyl)-2-propanesulfonamide or (2R)—N-(4-(2,6-dimethoxyphenyl)-5-(5-ethyl-2-furanyl)-4H-1,2,4-triazol-3-yl)-1-(5-fluoro-2-pyrimidinyl)-2-propanesulfonamide], the concentration for a half-maximal effect (EC50) was determined as 1 nM.
Under `COc1cccc(OC)c1-n1c(NS(=O)(=O)C[C@@H](C)c2ncc(F)cn2)nnc1-c1ccc(C)o1` (single isomer, unassigned) [Example 123.0, (S)—N-(4-(2,6-Dimethoxyphenyl)-5-(5-methylfuran-2-yl)-4H-1,2,4-triazol-3-yl)-2-(5-fluoropyrimidin-2-yl)propane-1-sulfonamide or (R)—N-(4-(2,6-dimethoxyphenyl)-5-(5-methylfuran-2-yl)-4H-1,2,4-triazol-3-yl)-2-(5-fluoropyrimidin-2-yl)propane-1-sulfonamide] stands 0.24 nM; under `COc1cccc(OC)c1-n1c(NS(=O)(=O)[C@@H](C)Cc2ncc(F)c(C)n2)nnc1-c1ccco1` (racemic) [Example 234.0, (2S)—N-(4-(2,6-Dimethoxyphenyl)-5-(2-furanyl)-4H-1,2,4-triazol-3-yl)-1-(5-fluoro-4-methyl-2-pyrimidinyl)-2-propanesulfonamide and (2R)—N-(4-(2,6-dimethoxyphenyl)-5-(2-furanyl)-4H-1,2,4-triazol-3-yl)-1-(5-fluoro-4-methyl-2-pyrimidinyl)-2-propanesulfonamide], 0.54 nM; under `COc1ncnc(OC)c1-n1c(NS(=O)(=O)CCc2ccc(F)cc2C#N)nnc1-c1ccco1` [Example 252.0, 2-(2-Cyano-4-fluorophenyl)-N-(4-(4,6-dimethoxy-5-pyrimidinyl)-5-(2-furanyl)-4H-1,2,4-triazol-3-yl)ethanesulfonamide], 9.7 nM.
The same measure for `COc1cccc(OC)c1-n1c(NS(=O)(=O)[C@@H](C)[C@@H](O)c2ccc(F)cn2)nnc1-c1ccc(C)o1` (single isomer, unassigned) [Example 59.0]: 0.16 nM; for `COc1cccc(OC)c1-n1c(NS(=O)(=O)[C@@H](C)[C@@](C)(O)c2ncc(F)cn2)nnc1-c1ccc(C)o1` [Example 242.0, (2S,3S)—N-(4-(2,6-Dimethoxyphenyl)-5-(5-methyl-2-furanyl)-4H-1,2,4-triazol-3-yl)-3-(5-fluoro-2-pyrimidinyl)-3-hydroxy-2-butanesulfonamide]: 0.81 nM; for `COc1cccc(OC)c1-n1c(NS(=O)(=O)[C@@H](C)[C@@H](O)c2coc(C)n2)nnc1-c1ccc(C)o1` (racemic) [Example 300.0, (1R,2R)—N-(4-(2,6-Dimethoxyphenyl)-5-(5-methyl-2-furanyl)-4H-1,2,4-triazol-3-yl)-1-hydroxy-1-(2-methyl-1,3-oxazol-4-yl)-2-propanesulfonamide and (1S,2S)—N-(4-(2,6-dimethoxyphenyl)-5-(5-methyl-2-furanyl)-4H-1,2,4-triazol-3-yl)-1-hydroxy-1-(2-methyl-1,3-oxazol-4-yl)-2-propanesulfonamide]: 12 nM.
`COc1cccc(OC)c1-n1c(NS(=O)(=O)[C@H]2C[C@H](OC)CN(c3ncc(F)cn3)C2)nnc1-c1ccco1` (single isomer, unassigned) [Example 178.0]: the EC50 is 3 nM.
The same measure for `COc1cccc(OC)c1-n1c(NS(=O)(=O)[C@H](C)[C@@H](O)c2cn(C)cn2)nnc1-c1ccc(C)o1` (racemic) [Example 283.0, (1R,2S)—N-(4-(2,6-Dimethoxyphenyl)-5-(5-methyl-2-furanyl)-4H-1,2,4-triazol-3-yl)-1-hydroxy-1-(1-methyl-1H-imidazol-4-yl)-2-propanesulfonamide and (1S,2R)—N-(4-(2,6-dimethoxyphenyl)-5-(5-methyl-2-furanyl)-4H-1,2,4-triazol-3-yl)-1-hydroxy-1-(1-methyl-1H-imidazol-4-yl)-2-propanesulfonamide]: 1.4 nM; for `COc1cccc(OC)c1-n1c(NS(=O)(=O)[C@@H]2CCC[C@H]2c2ncc(F)cn2)nnc1-c1ccco1` (single isomer, unassigned) [Example 104.0, (1R,2S)—N-(4-(2,6-Dimethoxyphenyl)-5-(2-furanyl)-4H-1,2,4-triazol-3-yl)-2-(5-fluoro-2-pyrimidinyl)cyclopentanesulfonamide or (1S,2R)—N-(4-(2,6-dimethoxyphenyl)-5-(2-furanyl)-4H-1,2,4-triazol-3-yl)-2-(5-fluoro-2-pyrimidinyl)cyclopentanesulfonamide]: 22 nM.
